Experimental data reported in ChEMBL document CHEMBL3286285, “A novel 2-oxoindolinylidene inhibitor of bacterial MurD ligase: Enzyme kinetics, protein-inhibitor binding by NMR and a molecular dynamics study” (Eur J Med Chem, 2014).
≈ marks a conversion by molar mass, not a printed value. Calls of active or inactive are those of the source. The rule behind the calls is not given here.

Columns and labels:
[1] = target: T1, UDP-N-acetylmuramoylalanine--D-glutamate ligase (Escherichia coli K-12, UniProt P14900); experiment: Binding affinity to 6x His-tagged and 15N/13C-labeled Escherichia coli MurD ligase measured at NMR signal 43 by 1H/13C-HSQC 2D NMR spectroscopy
T1 sequence (P14900 whole entry): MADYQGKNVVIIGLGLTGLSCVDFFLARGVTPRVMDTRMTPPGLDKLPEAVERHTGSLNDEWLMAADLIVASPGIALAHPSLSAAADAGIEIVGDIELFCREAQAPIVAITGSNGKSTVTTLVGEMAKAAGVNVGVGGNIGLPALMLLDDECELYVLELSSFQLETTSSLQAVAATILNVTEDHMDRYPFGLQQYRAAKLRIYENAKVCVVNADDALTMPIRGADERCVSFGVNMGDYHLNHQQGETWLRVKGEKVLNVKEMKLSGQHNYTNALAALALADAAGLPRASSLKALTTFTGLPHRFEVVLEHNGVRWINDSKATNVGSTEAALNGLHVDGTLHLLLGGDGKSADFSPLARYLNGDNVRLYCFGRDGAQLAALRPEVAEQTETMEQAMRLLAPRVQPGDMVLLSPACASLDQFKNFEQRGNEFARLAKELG

Enterococcus faecalis = experiment: Antibacterial activity against Enterococcus faecalis ATCC 29212 by broth microdilution method; type: functional
[2] = target: T1, UDP-N-acetylmuramoylalanine--D-glutamate ligase; experiment: Binding affinity to 6x His-tagged and 15N/13C-labeled Escherichia coli MurD ligase measured at NMR signal 4 by 1H/13C-HSQC 2D NMR spectroscopy
Escherichia coli [3] = experiment: Antibacterial activity against Escherichia coli ATCC 25922 by broth microdilution method; type: functional
Haemophilus influenzae [4] = experiment: Antibacterial activity against Haemophilus influenzae ATCC 49247 by broth microdilution method; type: functional
Escherichia coli [5] = experiment: Antibacterial activity against Escherichia coli ATCC 35218 by broth microdilution method; type: functional
Streptococcus pneumoniae = experiment: Antibacterial activity against Streptococcus pneumoniae ATCC 49619 by broth microdilution method; type: functional
[6] = target: T1, UDP-N-acetylmuramoylalanine--D-glutamate ligase; experiment: Binding affinity to 6x His-tagged and 15N/13C-labeled Escherichia coli MurD ligase measured at NMR signal 71 by 1H/13C-HSQC 2D NMR spectroscopy
[7] = target: T1, UDP-N-acetylmuramoylalanine--D-glutamate ligase; experiment: Competitive inhibition of Escherichia coli MurD ligase activity using UDP-N-acetylmuramyl-L-alanine as a substrate
Haemophilus influenzae [8] = experiment: Antibacterial activity against Haemophilus influenzae Lek 93 by broth microdilution method; type: functional
[9] = target: T1, UDP-N-acetylmuramoylalanine--D-glutamate ligase; experiment: Binding affinity to 6x His-tagged and 15N/13C-labeled Escherichia coli MurD ligase by 1H/13C-HSQC 2D NMR spectroscopy
[10] = target: T2, UDP-N-acetylmuramoylalanine--D-glutamate ligase (Escherichia coli K-12) (UniProt P14900); experiment: Binding affinity to Escherichia coli MurD ligase by saturation transfer difference NMR spectroscopy
T2 sequence (whole entry): T1 sequence (P14900 whole entry)

[11] = target: T2, UDP-N-acetylmuramoylalanine--D-glutamate ligase (Escherichia coli K-12); experiment: Binding affinity to Escherichia coli MurD ligase by transferred NOESY NMR spectroscopy
Streptococcus pyogenes = experiment: Antibacterial activity against Streptococcus pyogenes ATCC 19615 by broth microdilution method; type: functional
Staphylococcus aureus = experiment: Antibacterial activity against Staphylococcus aureus ATCC 25923 by broth microdilution method; type: functional
[12] = target: T1, UDP-N-acetylmuramoylalanine--D-glutamate ligase; experiment: Binding affinity to 6x His-tagged and 15N/13C-labeled Escherichia coli MurD ligase measured at NMR signal 123 by 1H/13C-HSQC 2D NMR spectroscopy
[13] = target: T1, UDP-N-acetylmuramoylalanine--D-glutamate ligase; experiment: Binding affinity to 6x His-tagged and 15N/13C-labeled Escherichia coli MurD ligase measured at NMR signal 9 by 1H/13C-HSQC 2D NMR spectroscopy
[14] = target: T1, UDP-N-acetylmuramoylalanine--D-glutamate ligase; experiment: Binding affinity to 6x His-tagged and 15N/13C-labeled Escherichia coli MurD ligase measured at NMR signal 13 by 1H/13C-HSQC 2D NMR spectroscopy
[15] = target: T1, UDP-N-acetylmuramoylalanine--D-glutamate ligase; experiment: Binding affinity to 6x His-tagged and 15N/13C-labeled Escherichia coli MurD ligase measured at NMR signal 56 by 1H/13C-HSQC 2D NMR spectroscopy

Kd [1] [µM] | MIC (Enterococcus faecalis) [mg/L] | Kd [2] [µM] | MIC (Escherichia coli [3]) [mg/L] | MIC (Haemophilus influenzae [4]) [mg/L] | MIC (Escherichia coli [5]) [mg/L] | MIC (Streptococcus pneumoniae) [mg/L] | Kd [6] [µM] | Ki [7] [µM] | MIC (Haemophilus influenzae [8]) [mg/L] | Kd [9] [µM] | Activity [10] | MIC (Streptococcus pyogenes) [mg/L] | MIC (Staphylococcus aureus) [mg/L] | Kd [12] [µM] | Kd [13] [µM] | Kd [14] [µM] | Kd [15] [µM] | SMILES | Activity [11]
79 | 128 (≈ 299 µM) | 111 | > 128 | 128 (≈ 299 µM) | > 128 | > 128 | 106 | 115 | > 128 | 98 | Active | > 128 | > 128 |  |  |  |  | O=C1Nc2ccc([N+](=O)[O-])cc2/C1=C1/SC(=S)N(NC(=O)c2cccnc2)C1=O | Active
 |  | 210 |  |  |  |  |  |  |  |  |  |  |  | 120 |  |  |  | CCCCOc1ccc2cc(S(=O)(=O)N[C@H](CCC(=O)O)C(=O)O)ccc2c1 | 
 |  |  |  |  |  |  |  |  |  |  |  |  |  |  | 2.2 | 7 | 5.5 | N#Cc1ccc(COc2ccc3cc(S(=O)(=O)N[C@H](CCC(=O)O)C(=O)O)ccc3c2)c(F)c1 | 
